# Patent US6730521B1, “Chemical and biochemical assay method and apparatus” (The Technology Partnership PLC, priority 1999, dated 2004)
# Biological target: T1, streptavidin (Streptomyces avidinii, UniProt P22629)
# T1 construct: purchased Dynal
# Assay: FITC-biotin binding to a single streptavidin-coated bead in a scanned droplet
# Conditions: 5 μl of 48 nM FITC-biotin plus 5 μl buffer with a single 2.8 μm streptavidin bead; equilibrium after 30 minutes
# Procedure: A 5 μl sample of a solution of 48 nM fluorescein isothiocyanate-labelled biotin (FITC-biotin) is added to 5 μl of a solution of buffer containing a single 2.8 μm diameter bead coated with streptavidin (obtained from Dynal). The sample was presented to the instrument for scanning as a 10 μl droplet on the surface of a glass microscope slide. Illumination and light collection was arranged from above the sample. The instrument was set to take fluorescent intensity measurements at 1 μm intervals across the sample in the x-direction with a line-to-line step of 2.2 μm in the y-direction. As the laser spot size was 6 μmm, this allowed for overlap between each scan line. The graphs plot the relative intensity (analogue-to-digital converter or ADC counts) against position (sample number) for several adjacent scan lines. Initially, the FITC-biotin has had insufficient time to diffuse to the streptavidin sites concentrated on the bead. The sample was scanned at intervals over the period of the experiment. It can be readily appreciated that the signal obtained from the illumination will be proportional to the number of molecules of label (FITC-biotin) in the path of the laser at each point. If, as in this case, the label is homogenous throughout the droplet then the signal at each point is proportional to the path length of the laser through the sample. […]
# T1 sequence (P22629 25-183): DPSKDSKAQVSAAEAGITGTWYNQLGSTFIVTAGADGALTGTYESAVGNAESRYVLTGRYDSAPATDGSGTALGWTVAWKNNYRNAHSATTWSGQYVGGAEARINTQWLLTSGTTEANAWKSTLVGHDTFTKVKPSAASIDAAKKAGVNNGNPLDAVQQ
substance,measurement,value
fluorescein isothiocyanate-labelled biotin [FITC-biotin],PVS/UVS signal ratio at equilibrium,approx. 6.1
